Experimental data as given in PubChem BioAssay (NCI).
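48-hour exposure; five concentrations; linearly interpolated endpoints. At the GI50, growth is halved. TGI: total growth inhibition.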

Experiments:
Assay in all cases: NCI tumour cell line growth inhibition, 48 h
KM20L2 colon = test system: KM20L2 colon
LXFL 529 NSCLC = test system: LXFL 529 NSCLC
DMS 273 small cell lung = test system: DMS 273 small cell lung
SNB-78 CNS = test system: SNB-78 CNS
RXF-631 renal = test system: RXF-631 renal
DMS 114 small cell lung = test system: DMS 114 small cell lung
SR leukemia = test system: SR leukemia
DLD-1 colon = test system: DLD-1 colon
SN12K1 renal = test system: SN12K1 renal
P388/ADR leukemia = test system: P388/ADR leukemia
P388 leukemia = test system: P388 leukemia

c1ccc(-n2cnnc2-c2nsc3ccccc23)cc1
TGI (KM20L2 colon): > 100 µM
TGI (LXFL 529 NSCLC): > 100 µM
TGI (DMS 273 small cell lung): > 100 µM
TGI (SNB-78 CNS): > 100 µM

C=C(CN(C)C)C(=O)c1ccc(C)cc1C
TGI (RXF-631 renal): 36.9 µM
TGI (DMS 114 small cell lung): 46.6 µM
TGI (KM20L2 colon): 39 µM
TGI (SR leukemia): 4.26 µM
TGI (LXFL 529 NSCLC): 26.9 µM
TGI (DMS 273 small cell lung): 44.2 µM
TGI (DLD-1 colon): 14.2 µM
TGI (SNB-78 CNS): 60.4 µM

CCN=C=NCCCN(C)C
TGI (SR leukemia): > 100 µM

CN1CCC(C(=O)NNc2ccccc2)CC1
TGI (DMS 114 small cell lung): > 87.2 µM
TGI (KM20L2 colon): > 33.6 µM
TGI (SR leukemia): > 100 µM
TGI (LXFL 529 NSCLC): 5.69 µM
TGI (DMS 273 small cell lung): > 31.3 µM
TGI (DLD-1 colon): > 100 µM
TGI (SNB-78 CNS): > 100 µM

C=C(C)C(=O)OC1C(C(C)CCCO)=C(CO)CC2OC(=O)C(=C)C21 (configuration not stated)
TGI (SR leukemia): > 100 µM

OC(Cc1ccccc1)(Cc1ccccc1)c1ccccc1
TGI (SR leukemia): 80.8 µM

C=C1CC23CCC4C(C)(C(=O)O)CCCC4(C)C2CCC1C3 (configuration not stated)
TGI (SR leukemia): 90.9 µM

COC1/C=C\OC2(C)Oc3c(C)c(O)c4c(O)c(c(/C=N\OCCCc5ccccc5)c(O)c4c3C2=O)NC(=O)/C(C)=C\C=C/C(C)C(O)C(C)C(O)C(C)C(OC(C)=O)C1C (configuration not stated)
TGI (SR leukemia): 5.98 µM

CC(C)(C)C1(c2ccc(C3(c4ccccc4)Oc4ccccc4S3)[nH]2)Oc2ccccc2S1 (configuration not stated)
TGI (RXF-631 renal): > 100 µM
TGI (DMS 114 small cell lung): > 100 µM
TGI (KM20L2 colon): > 100 µM
TGI (LXFL 529 NSCLC): > 100 µM
TGI (DMS 273 small cell lung): > 100 µM
TGI (DLD-1 colon): > 100 µM
TGI (SNB-78 CNS): > 100 µM

O=S(=O)(O)c1cc(N=Nc2cc(S(=O)(=O)O)c3ccccc3c2O)ccc1/C=C/c1ccc(N=Nc2cc(S(=O)(=O)O)c3ccccc3c2O)cc1S(=O)(=O)O
GI50 (DMS 114 small cell lung): > 1000 µM
TGI (DMS 114 small cell lung): > 1000 µM
GI50 (SR leukemia): 32.8 µM
TGI (SR leukemia): 70.6 µM
TGI (LXFL 529 NSCLC): > 1000 µM
GI50 (DMS 273 small cell lung): > 1000 µM
TGI (DMS 273 small cell lung): > 1000 µM
GI50 (DLD-1 colon): > 1000 µM
TGI (DLD-1 colon): > 1000 µM
GI50 (SNB-78 CNS): > 1000 µM
TGI (SNB-78 CNS): > 1000 µM

CC(C)=CCc1c(O)ccc2c1OC1c3ccc(O)c(CC=C(C)C)c3OCC21 (configuration not stated)
TGI (DMS 114 small cell lung): 26.3 µM
TGI (KM20L2 colon): 34 µM
TGI (SN12K1 renal): 20.2 µM
TGI (P388/ADR leukemia): 32.2 µM
TGI (P388 leukemia): 37.4 µM
TGI (DMS 273 small cell lung): 28.2 µM
TGI (DLD-1 colon): 18.9 µM
TGI (SNB-78 CNS): 33 µM

C[N+]1(C)CCOC(O)(c2ccccc2)C1 (configuration not stated)
TGI (SR leukemia): > 100 µM

C=C(C)C1CC2=C(O1)C(=O)c1ccccc1C2=O (configuration not stated)
TGI (RXF-631 renal): 40.3 µM
TGI (DMS 114 small cell lung): 32.9 µM
TGI (LXFL 529 NSCLC): 31.4 µM
TGI (DMS 273 small cell lung): 33.5 µM
TGI (DLD-1 colon): 52.1 µM
TGI (SNB-78 CNS): 39.9 µM

C=C1C(=O)CCC1C(=O)O (configuration not stated)
TGI (SR leukemia): > 100 µM

O=Nc1ccc(O)c2ncccc12
TGI (DMS 114 small cell lung): 12.4 µM
TGI (KM20L2 colon): 89.9 µM
TGI (SR leukemia): > 100 µM
TGI (LXFL 529 NSCLC): 12.9 µM
TGI (DMS 273 small cell lung): 10.3 µM
TGI (DLD-1 colon): 25.3 µM
TGI (SNB-78 CNS): 11.4 µM

C/C1=N\NC(=O)c2ccccc2C(=O)N/N=C(\C)c2cccc1n2.O=[N+]([O-])[O-].[Zn+2]
TGI (DMS 114 small cell lung): > 100 µM
TGI (KM20L2 colon): > 100 µM
TGI (LXFL 529 NSCLC): > 100 µM
TGI (DLD-1 colon): > 100 µM
TGI (SNB-78 CNS): > 100 µM

Nc1cc(S(=O)(=O)O)cc2cc(S(=O)(=O)O)c(N=Nc3ccc(-c4ccc(N=Nc5c(S(=O)(=O)O)cc6cc(S(=O)(=O)O)cc(N)c6c5O)cc4)cc3)c(O)c12
TGI (DMS 114 small cell lung): > 100 µM
TGI (KM20L2 colon): > 100 µM
TGI (SN12K1 renal): > 100 µM
TGI (P388 leukemia): > 100 µM
TGI (DMS 273 small cell lung): > 100 µM
TGI (DLD-1 colon): > 100 µM
TGI (SNB-78 CNS): > 100 µM
